Data: EP0677039B1, “CYCLOBUTANE DERIVATIVES AS INHIBITORS OF […] SYNTHETASE AND PROTEIN […]” (Abbott Laboratories, priority 1993, dated 1995)

tested on: Cholesterol Synthesis; assay: In vivo inhibition of cholesterol synthesis; conditions: Cynomolgus monkeys, 2 males and 2 females per group, 20 mg/kg, po, daily for a total of 5 days; average
Experimental: Monkeys, Cynomolgus, 2 males and 2 females per group, Controls: 3.7-6.1 Kg body weight, Dosed animals: 4.8-5.6 Kg body weight) were fasted overnight and bled in the morning. Plasma samples were prepared and analyzed for total cholesterol, HDL-cholesterol and triglycerides. […] Dosing was continued daily for a total of 5 days. Prior to the last dose the animals were fasted overnight and bled after dosing but before feeding. Plasma samples (anticoagulated with EDTA) were prepared and analyzed as before. One-sample t-tests were calculated to test for significant change within a group across the experiment.

Compound | Total plasma cholesterol was lowered [%]
CCCN(Cc1ccc(Oc2ccccc2)cc1)C(=O)[C@H]1[C@@H](C(=O)O)[C@H](C(=O)O)[C@@H]1C(=O)N(CCC)Cc1ccc(Oc2ccccc2)cc1 (racemic) [Example 17, (1α,2β,3β,4α)-1,2-Di[N-propyl-N-(4-phenoxybenzyl)aminocarbonyl]cyclobutane-3,4-dicarboxylic acid] | 15.5

target: T1, Rat liver microsomal squalene synthetase (Rattus norvegicus, UniProt Q02769); assay: In vitro inhibition of squalene synthetase; assay type: biochemical; conditions: 10 µM test compound; rat liver microsomes, labelled farnesyl pyrophosphate, 10 minutes at 37 °C; compared to controls with no test compound
T1 construct: Rat liver microsome, the source of enzyme; from tissue; host or cells: rat liver microsomes
T1 sequence (Q02769 1-416): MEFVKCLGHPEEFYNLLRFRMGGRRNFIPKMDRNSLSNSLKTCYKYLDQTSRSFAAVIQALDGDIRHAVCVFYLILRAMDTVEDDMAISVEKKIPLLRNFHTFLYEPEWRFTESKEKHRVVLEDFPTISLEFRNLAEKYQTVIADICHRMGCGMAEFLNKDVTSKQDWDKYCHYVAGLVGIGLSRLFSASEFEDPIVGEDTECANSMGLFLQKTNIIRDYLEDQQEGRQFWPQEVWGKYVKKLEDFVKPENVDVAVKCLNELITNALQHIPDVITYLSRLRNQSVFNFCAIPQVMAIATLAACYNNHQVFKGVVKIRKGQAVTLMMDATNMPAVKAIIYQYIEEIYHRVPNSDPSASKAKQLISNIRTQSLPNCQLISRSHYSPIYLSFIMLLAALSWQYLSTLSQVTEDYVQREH
How it was run: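 Percent inhibition at 10 µM (or 1 µM), against controls without compound, was scored from radioactive squalene formed from labelled farnesyl pyrophosphate by rat liver microsomal enzyme. Incubations were kept oxygen-free with nitrogen and stopped with ethanolic KOH; squalene was isolated by hexane extraction and an alumina column.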

inhibition at 10 µM [%] | Compound
58 | CCCN(Cc1ccc(Oc2ccccc2)cc1)C(=O)[C@@H]1[C@H](C(=O)C=[N+]=[N-])[C@@H](C(=O)C=[N+]=[N-])[C@H]1C(=O)N(CCC)Cc1ccc(Oc2ccccc2)cc1 (relative stereo) [Example 102, (1α,2β,3β,4α)-3,4-Bis(diazoacetyl)-1,2-di[N-propyl-N-(4-phenoxybenzyl)aminocarbonyl]cyclobutane]
54 | CN(Cc1ccc(Oc2ccccc2)cc1)C(=O)NC1C(NC(=O)N(C)Cc2ccc(Oc3ccccc3)cc2)C(C(=O)O)C1C(=O)O (stereo not drawn) [Example 120, (1α,2β,3β,4α)-1,2-Di[N-methyl-N-(4-phenoxybenzyl)aminocarbonylamino]cyclobutane-3,4-dicarboxylic acid]
84 | CCCN(Cc1ccc(Oc2ccccc2)cc1)C(=O)[C@@H]1[C@H](C(=O)O)[C@@H](C(=O)NO)[C@H]1C(=O)N(CCC)Cc1ccc(Oc2ccccc2)cc1 (relative stereo) [Example 98C, (1α,2β,3β,4α)-1,2-Di[N-propyl-N-(4-phenoxybenzyl)aminocarbonyl]-3-[(hydroxyamino)carbonyl]cyclobutane-4-carboxylic Acid]
51 | CCCN(Cc1ccc(C(=O)c2ccccc2)cc1)C(=O)C1C(C(=O)O)C(C(=O)O)C1C(=O)N(CCC)Cc1ccc(C(=O)c2ccccc2)cc1 (stereo not drawn) [Example 118B, (1α,2β,3β,4α)-1,2-Di[N-propyl-N-(4-benzoylbenzyl)aminocarbonyl]cyclobutane-3,4-carboxylic acid]

The remaining lines, values behind:

Compound | inhibition at 10 µM [%]
CN(Cc1ccc(OCc2ccccc2)cc1)C(=O)[C@H]1[C@@H](C(=O)O)[C@H](C(=O)O)[C@@H]1C(=O)N(C)Cc1ccc(OCc2ccccc2)cc1 [Example 14, (1α,2β,3β,4α)-1,2-Di(N-methyl-N-(4-benzyloxybenzyl)aminocarbonyl]cyclobutane-3,4-dicarboxylic acid] | 31
CCCN(Cc1ccc(OC2CCCCC2)cc1)C(=O)[C@H]1[C@@H](C(=O)O)[C@H](C(=O)O)[C@@H]1C(=O)N(CCC)Cc1ccc(OC2CCCCC2)cc1 [Example 61B, (1α,2β,3β,4α)-1,2-Di[N-propyl-N-(4-cyclohexyloxybenzyl)aminocarbonyl]cyclobutane-3,4-dicarboxylic acid] | 43
O=C(O)[C@H]1[C@H](C(=O)O)[C@H](C(=O)N(CCCCc2ccccc2)Cc2ccc(Oc3ccccc3)cc2)[C@H]1C(=O)N(CCCCc1ccccc1)Cc1ccc(Oc2ccccc2)cc1 [Example 58, (1α,2β,3β,4α)-1,2-Di[N-(4-phenoxybenzyl)-N-(4-phenyl-1-butyl)aminocarbonyl]cyclobutane-3,4-dicarboxylic acid] | 63
CCCN(Cc1ccc(Oc2cccc3ccccc23)cc1)C(=O)C1C(C(=O)O)C(C(=O)O)C1C(=O)N(CCC)Cc1ccc(Oc2cccc3ccccc23)cc1 (stereo not drawn) [Example 91, (1α,2β,3β,4α)-1,2-Di[N-propyl-N-(4-naphth-1-yloxybenzyl)aminocarbonyl]cyclobutane-3,4-dicarboxylic acid] | 62
CCCN(Cc1ccc(Oc2ccc(C)cc2)cc1)C(=O)C1C(C(=O)O)C(C(=O)O)C1C(=O)N(CCC)Cc1ccc(Oc2ccc(C)cc2)cc1 (stereo not drawn) [Example 90, (1α,2β,3β,4α)-1,2-Di[N-propyl-N-(4-(4-methyl-1-phenoxy)benzyl)aminocarbonyl]cyclobutane-3,4-dicarboxylic acid] | 53

same assay, conditions: values marked * in Table 1: 1 µM test compound; rat liver microsomes, labelled farnesyl pyrophosphate, 10 minutes at 37 °C

inhibition at 1 µM [%] | % Inhibition at 1 µM | Compound
73 | – | CCCN(Cc1ccc(Oc2ccccc2)cc1)C(=O)C1C(C(=O)O)C(C(=O)NC(CO)C(=O)O)C1C(=O)N(CCC)Cc1ccc(Oc2ccccc2)cc1 (single isomer, unassigned) [Example 110A, (1α,2β,3β,4α)-1,2-Di[N-propyl-N-(4-phenoxybenzyl)aminocarbonyl]cyclobutane-3.4-dicarboxylic acid mono-Serine amide]
51 | – | CCCN(Cc1ccc(Oc2ccccc2)cc1)C(=O)C1C(CCC(=O)O)C(C(=O)O)C1C(=O)N(CCC)Cc1ccc(Oc2ccccc2)cc1 (stereo not shown) [Example 77B]
– | 21* % | (1α,2β,3β,4α)-1,2-Di[N-propyl-N-(4-phenoxybenzyl)aminocarbonyl]cyclobutane-3,4-dicarboxylic acid mono-d-Norleucine amide [Example 112]
70 | – | CCCCC(NC(=O)[C@@H]1[C@@H](C(=O)O)[C@@H](C(=O)N(CCC)Cc2ccc(Oc3ccccc3)cc2)[C@@H]1C(=O)N(CCC)Cc1ccc(Oc2ccccc2)cc1)C(=O)O (single isomer, unassigned) [Example 104A, (1α,2β,3β,4α)-1,2-Di[N-propyl-N-(4-phenoxybenzyl)aminocarbonyl]cyclobutane-3,4-dicarboxylic acid Mono-Norleucine Amide]
– | 45* % | (1α,2β,3β,4α)-1,2-Di[N-propyl-N-(4-(3,4-methylenedioxyphenoxy)benzyl)aminocarbonyl]cyclobutane-3,4-carboxylic acid [Example 119C]

same assay, conditions: values marked * in Table 1: 1 µM test compound; rat liver microsomes, labelled farnesyl pyrophosphate, 10 minutes at 37 °C; 1 µM

% Inhibition at 1 µM | Compound
69* % | CCCN(Cc1ccc(Oc2ccccc2)cc1)C(=O)C1C(C(=O)O)C(C(=O)NC(CO)C(=O)O)C1C(=O)N(CCC)Cc1ccc(Oc2ccccc2)cc1 (single isomer, unassigned) [Example 110B, (1α,2β,3β,4α)-1,2-Di[N-propyl-N-(4-phenoxybenzyl)aminocarbonyl]cyclobutane-3,4-dicarboxylic acid mono-Serine amide]
